pIC50: −log10 of the molar value.
molecular target: neutrophil elastase (Homo sapiens (Human), UniProt P08246); test: Human Neutrophil Elastase Assay; type: biochemical; conditions: substrate MeOSuc-Ala-Ala-Pro-Val-AMC
Description: Human Neutrophil Elastase Assay
All other materials were of the highest grade commercially available.
The following buffers were used: Compound buffer: 100 mM Tris, 500 mM NaCl, adjusted to pH 7.5; Assay buffer: 100 mM Tris, 500 mM NaCl, adjusted to pH 7.5, containing 0.01% BSA.
Assay conditions: Test compounds were prediluted in DMSO and subsequently in compound buffer (5% DMSO final). […] After inactivation of the enzyme, fluorescence intensities were measured at 380 nm excitation and 460 nm emission wavelengths.
Each plate contains wells with a high value control (DMSO+enzyme+substrate) and wells with a low value control (DMSO+inactivated enzyme+substrate). IC50 values were estimated using a sigmoidal concentration response curve with variable slope. Means of low values were taken as 0%, means of high values as 100%.

Chain of neutrophil elastase (P08246 30-247): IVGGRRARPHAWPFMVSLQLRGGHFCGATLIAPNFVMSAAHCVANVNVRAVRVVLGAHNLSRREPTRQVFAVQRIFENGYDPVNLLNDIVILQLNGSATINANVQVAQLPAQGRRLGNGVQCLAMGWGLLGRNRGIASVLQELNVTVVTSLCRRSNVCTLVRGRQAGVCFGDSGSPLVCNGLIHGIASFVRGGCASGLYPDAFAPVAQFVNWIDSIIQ

| pIC50 | Compound |
| --- | --- |
| > 9.00 | CC(=O)C1=C(C)N(c2cccc(C(F)(F)F)c2)C(=O)N(C)C1c1ccc(C#N)cc1C(=O)NC1CCN(C)C1 (stereo not drawn) [Example 1.43] |
| > 9.00 | CC(=O)C1=C(C)N(c2cccc(C(F)(F)F)c2)C(=O)N(C)C1c1ccc(C#N)cc1C(=O)NCc1ccon1 (stereo not drawn) [Example 1.41] |
| > 9.00 | CC(=O)C1=C(C)N(c2cccc(C(F)(F)F)c2)C(=O)N(C)C1c1ccc(C#N)cc1C(=O)N1Cc2cnn(C)c2C1 (stereo not drawn) [Example 1.71] |
| > 9.00 | COC(=O)c1cc(C#N)ccc1C1C(C(C)=O)=C(C)N(c2cccc(C(F)(F)F)c2)C(=O)N1C (stereo not drawn) [Intermediate 5, 2-[5-Acetyl-3,6-dimethyl-2-oxo-1-(3-trifluoromethyl-phenyl)-1,2,3,4-tetrahydro-pyrimidin-4-yl]-5-cyano-benzoic acid methyl ester] |
| > 9.00 | CC(=O)C1=C(C)N(c2cccc(C(F)(F)F)c2)C(=O)N(C)C1c1ccc(C#N)cc1-c1cnco1 (stereo not drawn) [Example 5.8] |
| > 9.00 | COCCN(C)C(=O)c1cc(C#N)ccc1C1C(C(C)=O)=C(C)N(c2cccc(C(F)(F)F)c2)C(=O)N1C (stereo not drawn) [Example 1.21] |
| > 9.00 | CC(=O)C1=C(C)N(c2cccc(C(F)(F)F)c2)C(=O)N(C)C1c1ccc(C#N)cc1C(=O)NCc1cccnn1 (stereo not drawn) [Example 1.50] |
| > 9.00 | CC(=O)C1=C(C)N(c2cccc(C(F)(F)F)c2)C(=O)N(C)C1c1ccc(C#N)cc1C(=O)N1CCn2cnnc2C1 (stereo not drawn) [Example 1.74] |
| 8.66 | CCOC(=O)C1=C(C)N(c2cccc(C(F)(F)F)c2)C(=O)N(C)C1c1ccc(C#N)cc1C(=O)N1CCC(O)CC1 (stereo not drawn) [Example 3.27] |
| > 9.00 | CC(=O)C1=C(C)N(c2cccc(C(F)(F)F)c2)C(=O)N(C)C1c1ccc(C#N)cc1C(=O)NCCN(C)C (stereo not drawn) [Example 1.84] |
| 8.35 | CC(=O)C1=C(C)N(c2cccc(C(F)(F)F)c2)C(=O)N(C)C1c1ccc(C#N)cc1C(=O)N1CCNC(C)C1 (stereo not drawn) [Example 2.15] |
| > 9.00 | CC(=O)C1=C(C)N(c2cccc(C(F)(F)F)c2)C(=O)N(C)C1c1ccc(C#N)cc1-c1ccn(C)c(=O)c1 (stereo not drawn) [Example 5.4] |
| > 9.00 | CC(=O)C1=C(C)N(c2cccc(C(F)(F)F)c2)C(=O)N(C)C1c1ccc(C#N)cc1C(=O)NC1(C#N)CC1 (stereo not drawn) [Example 1.32] |
| > 9.00 | CC(=O)C1=C(C)N(c2cccc(C(F)(F)F)c2)C(=O)N(C)C1c1ccc(C#N)cc1-c1cncc(F)c1 (stereo not drawn) [Example 5.15] |
| > 9.00 | CC(=O)C1=C(C)N(c2cccc(C(F)(F)F)c2)C(=O)N(C)C1c1ccc(C#N)cc1C(=O)N(C)Cc1ccnn1C (stereo not drawn) [Example 1.76] |
| > 9.00 | CC(=O)C1=C(C)N(c2cccc(C(F)(F)F)c2)C(=O)N(C)C1c1ccc(C#N)cc1C(=O)NCc1cocn1 (stereo not drawn) [Example 1.42] |
| > 9.00 | CC(=O)C1=C(C)N(c2cccc(C(F)(F)F)c2)C(=O)N(C)C1c1ccc(C#N)cc1C(=O)N1CC[C@H](N(C)C)C1 (stereo partly drawn) [Example 1.64] |
| > 9.00 | CC(=O)C1=C(C)N(c2cccc(C(F)(F)F)c2)C(=O)N(C)C1c1ccc(C#N)cc1C(=O)N1CCn2cncc2C1 (stereo not drawn) [Example 1.69] |
| > 9.00 | CC(=O)C1=C(C)N(c2cccc(C(F)(F)F)c2)C(=O)N(C)C1c1ccc(C#N)cc1C(=O)N1CC[C@H](N)C1 (stereo partly drawn) [Example 2.11] |
| > 9.00 | CCOC(=O)C1=C(C)N(c2cccc(C(F)(F)F)c2)C(=O)N(C)C1c1ccc(C#N)cc1C(=O)NC12CCC1C2 (stereo not drawn) [Example 3.19] |
| > 9.00 | CC(=O)C1=C(C)N(c2cccc(C(F)(F)F)c2)C(=O)N(C)C1c1ccc(C#N)cc1C(=O)N(C)Cc1nncn1C (stereo not drawn) [Example 1.79] |
| > 9.00 | CC(=O)C1=C(C)N(c2cccc(C(F)(F)F)c2)C(=O)N(C)C1c1ccc(C#N)cc1C(=O)NCc1cccnc1 (stereo not drawn) [Example 1.48] |
| 8.32 | CC(=O)C1=C(C)N(c2cccc(C(F)(F)F)c2)C(=O)N(C)C1c1ccc(C#N)cc1C1=CCN(C(=O)OC(C)(C)C)CC1 (stereo not drawn) [Example 5.6, 4-{2-[5-Acetyl-3,6-dimethyl-2-oxo-1-(3-trifluoromethyl-phenyl)-1,2,3,4-tetrahydro-pyrimidin-4-yl]-5-cyano-phenyl}-3,6-dihydro-2H-pyridine-1-carboxylic acid tert-butyl ester] |
| > 9.00 | CCOC(=O)C1=C(C)N(c2cccc(C(F)(F)F)c2)C(=O)N(C)C1c1ccc(C#N)cc1C(=O)N(C)Cc1cnn(C)c1 (stereo not drawn) [Example 3.33] |
| > 9.00 | CC(=O)C1=C(C)N(c2cccc(C(F)(F)F)c2)C(=O)N(C)C1c1ccc(C#N)cc1C(=O)NCCCO (stereo not drawn) [Example 1.16] |
| > 9.00 | CCOC(=O)C1=C(C)N(c2cccc(C(F)(F)F)c2)C(=O)N(C)C1c1ccc(C#N)cc1C(=O)N[C@H]1C[C@H]1N (stereo partly drawn) [Example 4.6] |
| 8.52 | CCOC(=O)C1=C(C)N(c2cccc(C(F)(F)F)c2)C(=O)N(C)C1c1ccc(C#N)cc1C(=O)NC (stereo not drawn) [Example 3.4] |

| pIC50 | Compound |
| --- | --- |
| 8.96 | CC(=O)C1=C(C)N(c2cccc(C(F)(F)F)c2)C(=O)N(C)C1c1ccc(C#N)cc1-c1cnn(C)c1 (stereo not drawn) [Example 5.3] |
| 8.52 | CCOC(=O)C1=C(C)N(c2cccc(C(F)(F)F)c2)C(=O)N(C)C1c1ccc(C#N)cc1C1=CCNCC1 (stereo not drawn) [Example 15, 4-[4-Cyano-2-(1,2,3,6-tetrahydro-pyridin-4-yl)-phenyl]-3,6-dimethyl-2-oxo-1-(3-trifluoromethyl-phenyl)-1,2,3,4-tetrahydro-pyrimidine-5-carboxylic acid ethyl ester] |
| 8.92 | CC(=O)C1=C(C)N(c2cccc(C(F)(F)F)c2)C(=O)N(C)C1c1ccc(C#N)cc1C(=O)NC1CCN(C(C)C)C1 (stereo not drawn) [Example 1.83] |
| > 9.00 | CC(=O)C1=C(C)N(c2cccc(C(F)(F)F)c2)C(=O)N(C)C1c1ccc(C#N)cc1C(=O)NCC(C)(C)N (stereo not drawn) [Example 2.13] |
| > 9.00 | CCOC(=O)C1=C(C)N(c2cccc(C(F)(F)F)c2)C(=O)N(C)C1c1ccc(C#N)cc1C(=O)NCCF (stereo not drawn) [Example 3.11] |
| > 9.00 | CCOC(=O)C1=C(C)N(c2cccc(C(F)(F)F)c2)C(=O)N(C)C1c1ccc(C#N)cc1-c1cnn(C)c1 (stereo not drawn) [Example 14.5] |
| > 9.00 | CC(=O)C1=C(C)N(c2cccc(C(F)(F)F)c2)C(=O)N(C)C1c1ccc(C#N)cc1C(=O)NCc1ncco1 (stereo not drawn) [Example 1.37] |
| 8.85 | CC(=O)C1=C(C)N(c2cccc(C(F)(F)F)c2)C(=O)N(C)C1c1ccc(C#N)cc1C(=O)NC(C)c1ccco1 (stereo not drawn) [Example 1.51] |
| 9.00 | CC(=O)C1=C(C)N(c2cccc(C(F)(F)F)c2)C(=O)N(C)C1c1ccc(C#N)cc1C(=O)NC12CC(C1)C2 (stereo not drawn) [Example 1.18] |
| 8.33 | CC(=O)C1=C(C)N(c2cccc(C(F)(F)F)c2)C(=O)N(C)C1c1ccc(C#N)cc1C(=O)N1CCC(O)CC1 (stereo not drawn) [Example 1.26] |
| > 9.00 | CCOC(=O)C1=C(C)N(c2cccc(C(F)(F)F)c2)C(=O)N(C)C1c1ccc(C#N)cc1C(=O)NC1(C#N)CC1 (stereo not drawn) [Example 3.1] |
| > 9.00 | CC(=O)C1=C(C)N(c2cccc(C(F)(F)F)c2)C(=O)N(C)C1c1ccc(C#N)cc1C(=O)NCc1nnnn1C (stereo not drawn) [Example 1.62] |
| 8.70 | CCOC(=O)C1=C(C)N(c2cccc(C(F)(F)F)c2)C(=O)N(C)C1c1ccc(C#N)cc1C(=O)N1CCNC(C)C1 (stereo not drawn) [Example 4.17] |
| 8.51 | CCOC(=O)C1=C(C)N(c2cccc(C(F)(F)F)c2)C(=O)N(C)C1c1ccc(C#N)cc1-c1ccnn1C (stereo not drawn) [Example 14.6] |
| 8.43 | CCOC(=O)C1=C(C)N(c2cccc(C(F)(F)F)c2)C(=O)N(C)C1c1ccc(C#N)cc1-c1ccco1 (stereo not drawn) [Example 14, 4-(4-Cyano-2-furan-2-yl-phenyl)-3,6-dimethyl-2-oxo-1-(3-trifluoromethyl-phenyl)-1,2,3,4-tetrahydro-pyrimidine-5-carboxylic acid ethyl ester] |
| 8.96 | CCOC(=O)C1=C(C)N(c2cccc(C(F)(F)F)c2)C(=O)N(C)C1c1ccc(C#N)cc1C(=O)N(C)CCCOC (stereo not drawn) [Example 3.30] |
| 8.85 | CC(=O)C1=C(C)N(c2cccc(C(F)(F)F)c2)C(=O)N(C)C1c1ccc(C#N)cc1-c1cccnc1 (stereo not drawn) [Example 5.9] |
| > 9.00 | CCOC(=O)C1=C(C)N(c2cccc(C(F)(F)F)c2)C(=O)N(C)C1c1ccc(C#N)cc1C(=O)N1CC[C@@H](N)C1 (stereo partly drawn) [Example 4.12] |
| 8.74 | CC(=O)C1=C(C)N(c2cccc(C(F)(F)F)c2)C(=O)N(C)C1c1ccc(C#N)cc1C(=O)N1CC[C@@H](N(C)C)C1 (stereo partly drawn) [Example 1.63] |
| 8.80 | CCOC(=O)C1=C(C)N(c2cccc(C(F)(F)F)c2)C(=O)N(C)C1c1ccc(C#N)cc1C(=O)NCC(F)(F)F (stereo not drawn) [Example 3.26] |
| 8.34 | CC(=O)C1=C(C)N(c2cccc(C(F)(F)F)c2)C(=O)NC1c1ccc(C#N)cc1-c1ccoc1 (stereo not drawn) [Example 11, 4-[5-Acetyl-6-methyl-2-oxo-1-(3-trifluoromethyl-phenyl)-1,2,3,4-tetrahydro-pyrimidin-4-yl]-3-furan-3-yl-benzonitrile] |
| > 9.00 | CC(=O)C1=C(C)N(c2cccc(C(F)(F)F)c2)C(=O)N(C)C1c1ccc(C#N)cc1C(=O)NC1CCN(C)CC1 (stereo not drawn) [Example 1.28] |
| > 9.00 | CCOC(=O)C1=C(C)N(c2cccc(C(F)(F)F)c2)C(=O)N(C)C1c1ccc(C#N)cc1C(=O)N[C@@H]1C[C@H]1N (stereo partly drawn) [Example 4.7] |
| 8.24 | CC(=O)C1=C(C)N(c2cccc(C(F)(F)F)c2)C(=O)N(C)C1c1ccc(C#N)cc1-c1ccc2c(ccn2C)c1 (stereo not drawn) [Example 5.14] |
| > 9.00 | CC(=O)C1=C(C)N(c2cccc(C(F)(F)F)c2)C(=O)N(C)C1c1ccc(C#N)cc1C(=O)NCc1cnn(C)c1 (stereo not drawn) [Example 1.54] |
| > 9.00 | CC(=O)C1=C(C)N(c2cccc(C(F)(F)F)c2)C(=O)N(C)C1c1ccc(C#N)cc1C(=O)NC1CCOCC1 (stereo not drawn) [Example 1.24] |
| 8.52 | C#CCNC(=O)c1cc(C#N)ccc1C1C(C(=O)OCC)=C(C)N(c2cccc(C(F)(F)F)c2)C(=O)N1C (stereo not drawn) [Example 3.6] |
